The values that follow come from PubChem BioAssay AID651996 (Sanford-Burnham Center for Chemical Genomics, 2013).

SMILES strings stand for the structures. The source made the active and inactive calls.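 How the source made its calls: active means compounds whose half-maximal inhibitory concentration of the SKN-1 reporter ratio in worms is 20 µM or lower; inactive means the rest.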

This experiment deals with C. elegans VP596 Pgst-4::GFP/RFP ratio, acrylamide-induced, 24 h. Nature of the experiment: SKN-1 inhibitor analogs in C. elegans, SAR follow-up, whole organism, GFP/RFP fluorescence ratio, strain VP596 (AID 651996).
Regarding `Fc1ccc(-c2csc(-c3ccncc3)n2)cc1`, the IC50 is 1.58 µM.
Under `O=C(/C=C/Nc1ccc(F)c(Cl)c1)c1ccco1` stands 12.5 µM; under `O=C(Nc1nc(-c2ccc(Cl)s2)cs1)c1ccco1`, 8.95 µM.
For `CC(C)c1ccc(C(=O)Nc2ccc(CN3CCOCC3)cc2)cc1` the value was 4.74 µM; for `Fc1ccc(COc2ccc(-c3nnco3)cc2)cc1`, 4.14 µM.
Under `COc1cc(CNC(C)(C)CO)cc(Br)c1OCc1ccc(Cl)cc1` stands 26.2 µM (inactive).
With `O=C(/C=C/Nc1ccc(F)c(F)c1)c1cccs1`, the IC50 was 14.3 µM.
For `O=C(Nc1nccs1)c1ccc2ccccc2n1` the value was 6.84 µM; for `Cc1oc(-c2ccc(-c3ccccc3)cc2)nc1CN(C)C1CCOC1` (configuration not stated), 15.5 µM; for `c1ccc2oc(SCc3nc4ccccc4s3)nc2c1`, 15.5 µM.
Under `c1ccc2sc(SCc3ccc(-c4nnco4)cc3)nc2c1` stands 10.5 µM; under `CSc1cccc(NC(=O)c2cccc3cccnc23)c1`, 9.32 µM.
In the case of `Clc1ccc(-c2nnc(-c3ccco3)o2)cc1`, the IC50 is 14.3 µM.
As to `Cc1nc2ccccc2cc1OCc1ccc(F)cc1`, the IC50 is 7.88 µM.
Under `O=C(Nc1nc(-c2ccccc2)cs1)c1cccs1` stands 16.9 µM.
In the case of `O=C(/C=C/c1ccc(Br)cc1)c1ccc(NC2=NCCCS2)cc1`, the IC50 is 9.32 µM.
Under `CCOc1cc(CNC2CCCC2)cc(Cl)c1OCc1ccccc1` stands 9.86 µM.
For `Brc1ccc(-c2nc(-c3ccccc3)no2)o1` the value was 8.64 µM; for `O=C(Nc1nc(-c2ccc(Cl)s2)cs1)c1cccs1`, 58.9 µM (inactive); for `CCOC(=O)c1c(-c2ccc(-c3ccccc3)cc2)csc1NC(=O)CNCCN(C)C`, 10.9 µM.
Under `Clc1ccccc1-c1nnc(-c2ccccc2Cl)o1` stands 24.9 µM (inactive); under `O=C(/C=C/c1cccs1)c1ccc(Br)cc1`, 12.4 µM.
On to `COc1cc(CNC(C)c2ccccc2)cc(Br)c1OCc1ccc(F)cc1` (configuration not stated), for which the IC50 was > 64 µM (inactive).
For `Cc1ccc(-c2noc(-c3cccs3)n2)cc1` the value was 10.7 µM; for `Cc1ccccc1-c1noc(-c2cccs2)n1`, 6.42 µM; for `Brc1ccc(CSc2nnc(-c3cccnc3)o2)cc1`, 19.1 µM.
Under `c1ccc(-c2csc(-c3ccncc3)n2)cc1` stands 7.34 µM; under `c1ccc(-c2nc(-c3ccncc3)no2)cc1`, 6.15 µM; under `Clc1ccc(Nc2nc(-c3cccs3)cs2)nc1`, 8.93 µM.
On to `Cc1ccc(Nc2nc(-c3cccs3)cs2)nc1`, for which the IC50 was 21.8 µM (inactive).
On to `Brc1ccc(CSc2nnc(-c3ccco3)o2)cc1`, for which the IC50 is 7.06 µM.
With `O=C(/C=C/c1ccccc1)Nc1ccc(CN2CCOCC2)cc1`, the IC50 was 14.8 µM.
Under `Brc1ccc(-c2nnc(-c3ccco3)o2)cc1` stands 13.8 µM; under `O=C(/C=C/Nc1ccc(Br)cc1F)c1ccco1`, 12.2 µM; under `Fc1ccc(-c2csc(Nc3ccccn3)n2)cc1`, 3.81 µM.
For `O=C(Nc1nc2c(ccc3ccccc32)s1)c1ccco1` the value was 16.9 µM.
For `O=C(/C=C/Nc1ccc(F)cc1F)c1ccco1`, the IC50 is 23.3 µM (inactive).
With `Cc1ccc(N=C/C(C(=O)C(F)(F)F)=C(\O)c2ccco2)cc1Cl`, the IC50 is 33.1 µM (inactive).
For `CCOc1cc(CNC2CCCC2)cc(Cl)c1OCc1ccc(F)cc1` the value was 4.49 µM.
Turning to `COc1ccc(C(=O)Nc2nc(-c3cccs3)cs2)cc1`, the IC50 was 28.9 µM (inactive).
Consider `Cc1cc(OCc2cccc(Cl)c2)c(C)cc1CN1CCOCC1`, for which the IC50 is 7.19 µM.
Under `O=C(/C=C/Nc1ccccc1F)c1cccs1` stands 23.2 µM (inactive).
`O=C(Nc1nc(-c2ccc(Cl)s2)cs1)c1ccccc1`: the IC50 is 13 µM.
Under `Fc1ccc(COc2ccc(-c3nnco3)cc2)c(Cl)c1` stands 2.25 µM; under `CCOc1ccc(-c2nc(-c3cccnc3)no2)cc1`, 9.89 µM.
For `COc1cc(CNC2CCCC2)cc(Cl)c1OCc1ccc(F)cc1` the value was 7.21 µM; for `c1ccc(SCc2cc(-c3ccccc3)no2)cc1`, 7.39 µM; for `Clc1ccc(-c2nnc(-c3ccccc3)o2)c(Cl)c1`, 0.64 µM.
For the compound `O=C(/C=C/Nc1ccc(F)cc1F)c1cccs1`, the IC50 was 8.44 µM.
Turning to `O=C(Nc1ccc(CN2CCOCC2)cc1)c1cc2ccccc2o1`, the concentration for half-maximal inhibition (IC50) was 18 µM.
For the compound `c1ccc(Nc2nc(-c3cccs3)cs2)nc1`, the IC50 was 13.8 µM.
Under `CCOc1cc(CNCCSc2nnnn2C)cc(Br)c1OCc1ccc(F)cc1` stands 17 µM; under `CCc1ccc(-c2nc(-c3ccncc3)no2)cc1`, 11.8 µM.
For `CCOC(=O)Nc1nc(-c2ccc(F)cc2F)cs1` the value was 4.63 µM; for `c1ccc(-c2csc(Nc3ccccn3)n2)cc1`, 8.17 µM; for `Clc1ccccc1-c1nc(-c2ccncc2)no1`, 7.94 µM.
Under `Cc1ccc(CSc2nnc(-c3ccco3)o2)cc1` stands 22.7 µM (inactive).

What is called IC50 is the concentration that inhibits the measured activity by half.
